{"source": "patent US20120129811A1", "about": "“TRICYCLIC INHIBITORS OF PRO-MATRIX METALLOPROTEINASE ACTIVATION” (priority 2010, published 2012)", "key": {"MMP9": {"biological_target": "T1, MMP9 (Rattus norvegicus, UniProt P50282)", "T1 construct": "Pro and active MMP9 were abundantly present in ankles of SCW-induced vehicle-treated rats; from tissue; host or cells: tibia-tarsus joints (ankles) of female Lewis rats", "T1 sequence (P50282 108-708)": "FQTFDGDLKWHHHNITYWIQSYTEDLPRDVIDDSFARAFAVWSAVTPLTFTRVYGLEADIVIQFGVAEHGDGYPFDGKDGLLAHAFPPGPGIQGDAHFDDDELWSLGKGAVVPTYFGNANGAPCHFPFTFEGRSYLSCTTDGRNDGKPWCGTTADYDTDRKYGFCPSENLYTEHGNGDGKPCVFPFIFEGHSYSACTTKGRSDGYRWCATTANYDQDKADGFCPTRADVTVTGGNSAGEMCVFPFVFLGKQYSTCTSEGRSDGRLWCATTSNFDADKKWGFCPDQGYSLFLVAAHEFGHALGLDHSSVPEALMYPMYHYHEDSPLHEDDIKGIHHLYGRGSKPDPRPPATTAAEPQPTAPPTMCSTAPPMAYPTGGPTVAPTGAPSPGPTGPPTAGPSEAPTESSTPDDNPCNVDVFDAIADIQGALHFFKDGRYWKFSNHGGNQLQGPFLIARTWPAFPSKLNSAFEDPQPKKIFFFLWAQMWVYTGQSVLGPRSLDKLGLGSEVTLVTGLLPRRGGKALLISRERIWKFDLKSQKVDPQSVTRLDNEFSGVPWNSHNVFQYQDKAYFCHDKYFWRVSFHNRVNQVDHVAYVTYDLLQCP", "test": "Western blot of pro and active MMP9 in ankles of rats with SCW-induced arthritis", "assay_type": "in vivo", "details": "Day 26, four hours after AM dose", "method": "Hind-limbs were skinned, severed just above the tibia-tarsus joint and below the metatarsals, and the tibia-tarsus joints (ankles) were weighed, snap frozen and pulverized on dry ice using a hammer and anvil. The pulverized tissue was suspended in 3 volumes (w:v) of ice-cold homogenization buffer containing 50 mM Tris pH 7.5, 150 mM NaCl, 5 mM EDTA, 1% Triton X100, 0.05% Brij 30, 10% dimethylsulfoxide and Complete EDTA-free Protease Inhibitor Cocktail (Roche Diagnostics). The suspended tissue was homogenized sequentially with a Kinematica AG Polytron and a Dounce homogenizer. Homogenates were centrifuged at 16,000×g for 10 min at 4° C. and the soluble fractions were saved. Dimethylsulfoxide was removed from a portion of each soluble fraction using PD MiniTrap™ G-25 desalting columns (GE Healthcare). Homogenates (0.25 mL), free of DMSO, were diluted with an equal volume of binding buffer (i.e., homogenization buffer without dimethylsufoxide) and adjusted to contain 50 μL of a 50% slurry of gelatin-conjugated sepharose. Following 2 hours of rotation at 4° C. the beads were washed twice in binding buffer and eluted in 100 μL 2×-reducing Laemmli buffer with heating to 95° C. for 5 minutes. […]"}, "[1]": {"system": "rats with SCW-induced arthritis", "test": "Efficacy in rats with SCW-induced arthritis (ankle thickness, clinical scores)", "assay_type": "in vivo, rat", "details": "for Ankle thickness, Day 18 / Clinical Scores (0-8), Day 18: Day 18 (start of treatment); for Ankle thickness, Day 18 / Ankle thickness, Day 26 / Clinical Scores (0-8), Day 18 / Clinical Scores (0-8), Day 26: mean n=5; for % Inh (disease associated increase in ankle thickness): Day 26", "description": "A polyarthritis can be induced in female Lewis rats following i.p. administration of streptococcal cell wall (SCW) proteoglycan-polysaccharides (PG-PS) (J Exp Med 1977; 146:1585-1602). The model has an acute phase (days 3-7) that is complement and neutrophil-dependent and that resolves. A chronic erosive phase begins at about day ten and is dependent on the development of specific T cell immunity to the PG-GS, which resists digestion and remains present in synovial macrophages for months. Like rheumatoid arthritis, SCW-induced arthritis is reduced by TNF inhibitors, and the dependence of SCW-induced arthritis on macrophages (Rheumatology; 2001; 40:978-987) and the strong association of rheumatoid arthritis severity with synovial-tissue macrophage counts (Ann Rheum Dis; 2005; 64:834-838) makes SCW-arthritis an attractive model for testing potential therapeutic agents. SCW PG-PS 10S (Beckton Dickinson Cat#210866) suspended in saline was vortexed for 30 seconds and sonicated for 3 min with a probe type sonicator prior to injection. Female Lewis (LEW/N) rats, 5-6 weeks of age (80-100 g) were injected (i.p.) with SCW PG-PS (15 μg of rhamnose/gram BW) in the lower left quadrant of the abdomen using a 1 mL syringe fitted with a 23-gauge needle. Control (disease-free) rats were treated in a similar manner with sterile saline. Control rats were sacrificed on day 5 and groups of SCW-injected rats were sacrificed on day 5 when acute inflammation was maximal or on day 18 when chronic inflammation was established.\nTo induce arthritis, Female Lewis (LEW/N) rats, 5-6 weeks of age (80-100 g) were injected (i.p.) with SCW PG-PS as described above. Eighteen days later, arthritis was well established. Calipers were used to measure the width (anterior to posterior surface) of the left and right hind ankles of each rat. Each ankle was measured 3 times and averaged, and treatment groups were randomized based on ankle thickness (Table 6). Commencing on day 18, randomized groups of arthritic rats (n=5 rats/group) received vehicle or 5, 20, or 50 mg/kg Compound-α BID by oral gavage. Vehicle consisted of an aqueous mixture containing 2% (v:v) N-methylpyrrolidone, 5% (v:v) glycerine, and 20% (w:v) captisol. Treatment continued daily through the morning of day 26.\nHind paw inflammation clinical scores were assigned based on swelling and erythema."}, "[2]": {"details": "5 mg/kg BID oral gavage Day 18-26"}, "[3]": {"details": "20 mg/kg BID oral gavage Day 18-26"}, "[4]": {"details": "50 mg/kg BID oral gavage Day 18-26"}}}
{"compound": "Cc1nc(C)c(-c2csc(Nc3cc(S(N)(=O)=O)ccc3OC(C)C)n2)s1", "note": "[Compound α, 3-(2′,4′-Dimethyl-[4,5′]bithiazolyl-2-ylamino)-4-isopropoxy-benzenesulfonamide.HBr]", "values": [{"measurement": "effect on abundance of proMMP9 in ankles", "setting": "MMP9; mAb-L51/82", "result": "did not reduce the abundance of proMMP-9"}, {"measurement": "effect on abundance of proMMP9 in ankles", "setting": "MMP9; mAb-L51/82, listed as Compound-α", "result": "did not reduce the abundance of proMMP9"}, {"measurement": "Day 26 Δ mm (vs. group 1)", "setting": "[1]; [2]", "result": 3.67, "unit": "mm"}, {"measurement": "Ankle thickness, Day 18", "setting": "[1]; [2]", "result": 11.79, "unit": "mm"}, {"measurement": "% Inh (disease associated increase in ankle thickness)", "setting": "[1]; [2]", "result": 27, "unit": "%"}, {"measurement": "Ankle thickness, Day 26", "setting": "[1]; [2]", "result": 10.93, "unit": "mm"}, {"measurement": "Clinical Scores, Δ Day 18 vs. day 26", "setting": "[1]; 5 mg/kg Day 18-26", "result": "−1.20"}, {"measurement": "Clinical Scores (0-8), Day 18", "setting": "[1]; 5 mg/kg Day 18-26", "result": 8.00}, {"measurement": "Clinical Scores (0-8), Day 26", "setting": "[1]; 5 mg/kg Day 18-26", "result": 6.80}, {"measurement": "Day 26 Δ mm (vs. group 1)", "setting": "[1]; [3]", "result": 3.15, "unit": "mm"}, {"measurement": "Ankle thickness, Day 18", "setting": "[1]; [3]", "result": 11.76, "unit": "mm"}, {"measurement": "% Inh (disease associated increase in ankle thickness)", "setting": "[1]; [3]", "result": 37, "unit": "%"}, {"measurement": "Ankle thickness, Day 26", "setting": "[1]; [3]", "result": 10.42, "unit": "mm"}, {"measurement": "Clinical Scores, Δ Day 18 vs. day 26", "setting": "[1]; 20 mg/kg Day 18-26", "result": "−2.80"}, {"measurement": "Clinical Scores (0-8), Day 18", "setting": "[1]; 20 mg/kg Day 18-26", "result": 8.00}, {"measurement": "Clinical Scores (0-8), Day 26", "setting": "[1]; 20 mg/kg Day 18-26", "result": 5.20}, {"measurement": "Day 26 Δ mm (vs. group 1)", "setting": "[1]; [4]", "result": 2.73, "unit": "mm"}, {"measurement": "Ankle thickness, Day 18", "setting": "[1]; [4]", "result": 11.68, "unit": "mm"}, {"measurement": "% Inh (disease associated increase in ankle thickness)", "setting": "[1]; [4]", "result": 46, "unit": "%"}, {"measurement": "Ankle thickness, Day 26", "setting": "[1]; [4]", "result": 9.99, "unit": "mm"}, {"measurement": "Clinical Scores, Δ Day 18 vs. day 26", "setting": "[1]; 50 mg/kg Day 18-26", "result": "−3.40"}, {"measurement": "Clinical Scores (0-8), Day 18", "setting": "[1]; 50 mg/kg Day 18-26", "result": 7.80}, {"measurement": "Clinical Scores (0-8), Day 26", "setting": "[1]; 50 mg/kg Day 18-26", "result": 4.40}, {"measurement": "effect on ankle thickness measurements", "setting": "[1]; 5, 20, 50 mg/kg BID, Day 18-26", "result": "dose-dependent decrease in ankle thickness measurements"}, {"measurement": "effect on clinical score measurements", "setting": "[1]; 5, 20, 50 mg/kg BID, Day 18-26", "result": "dose dependent decrease in clinical score measurements"}]}
